Data taken from the supplement of paper PMC11451515.

Columns and labels:
Conditions in all cases: 48 h
SEM cells [1] = test: AUC of viability dose-response curve (% viability x log10 dose units); higher = less sensitive
In short: (§1)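 Medium-adapted leukemia cells in 1536-well plates, at 500 or 1000 cells/well, were incubated for 48 h at 37°C with library compounds in DMSO at 11 threefold doses from 47 μM to 0.79 nM. CellTiter-Glo One luminescence normalised per plate to DMSO and cell-free wells was fitted with a four-parameter log-logistic model over log10 doses. Area under the curve was integrated from this fit by trapezoidal rule, with curves beyond full viability scaled and failed quality-control curves removed.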

P12-Ichikawa [2] = test: as above
In short: as §1

NOMO1 [3] = test: as above
In short: as §1

SEM cells [4] = test: cell viability relative to DMSO control; higher = less cytotoxic
In short: (§2)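 NOMO1 or SEM (500 cells/well) or P12-Ichikawa (1000 cells/well) leukemia cells were adapted for at least four passages in each medium. They were seeded in 1536-well plates (5 μl) and pin-dosed with library compounds in DMSO over an 11-point threefold series, 47 μM to 0.79 nM. CellTiter-Glo One luminescence was read after 48 h at 37°C. Viability is the per-plate percentage relative to DMSO wells, with cell-free wells as background.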

P12-Ichikawa [5] = test: as above
In short: as §2

NOMO1 [6] = test: as above
In short: as §2

CC(C)CC(N(C)C)C1(c2ccc(Cl)cc2)CCC1 (stereo not given)
AUC of viability dose-response curve
Conditions	NOMO1 [3]	P12-Ichikawa [2]	SEM cells [1]
HPLM + 10% dialyzed FBS	441	393	424
RPMI 5 mM glucose + 10% FBS	457	392	408
RPMI 5 mM glucose + 10% dialyzed FBS	463	382	406

cell viability [%]
Conditions	NOMO1 [6]	P12-Ichikawa [5]	SEM cells [4]
HPLM + 10% dialyzed FBS, 0.000781 µM	118	114	114
HPLM + 10% dialyzed FBS, 0.00234 µM	136	120	119
HPLM + 10% dialyzed FBS, 0.00702 µM	120	105	117
HPLM + 10% dialyzed FBS, 0.0211 µM	119	113	133
HPLM + 10% dialyzed FBS, 0.0632 µM	116	114	124
HPLM + 10% dialyzed FBS, 0.19 µM	117	111	117
HPLM + 10% dialyzed FBS, 0.569 µM	116	105	126
HPLM + 10% dialyzed FBS, 1.71 µM	113	86.3	110
HPLM + 10% dialyzed FBS, 5.12 µM	107	57.7	90.4
HPLM + 10% dialyzed FBS, 15.4 µM	94.5	54.9	54.3
HPLM + 10% dialyzed FBS, 46.1 µM	87	34	59.1
RPMI 5 mM glucose + 10% FBS, 0.000781 µM	110	109	111
RPMI 5 mM glucose + 10% FBS, 0.00234 µM	113	115	127
RPMI 5 mM glucose + 10% FBS, 0.00702 µM	113	113	118
RPMI 5 mM glucose + 10% FBS, 0.0211 µM	118	109	116
RPMI 5 mM glucose + 10% FBS, 0.0632 µM	117	106	121
RPMI 5 mM glucose + 10% FBS, 0.19 µM	123	112	128
RPMI 5 mM glucose + 10% FBS, 0.569 µM	119	94	121
RPMI 5 mM glucose + 10% FBS, 1.71 µM	116	82.2	105
RPMI 5 mM glucose + 10% FBS, 5.12 µM	98.2	51.4	75
RPMI 5 mM glucose + 10% FBS, 15.4 µM	94.1	48.7	40.2
RPMI 5 mM glucose + 10% FBS, 46.1 µM	99	49.1	46.7
RPMI 5 mM glucose + 10% dialyzed FBS, 0.000781 µM	109	106	–
RPMI 5 mM glucose + 10% dialyzed FBS, 0.00234 µM	110	114	–
RPMI 5 mM glucose + 10% dialyzed FBS, 0.00702 µM	124	106	–
RPMI 5 mM glucose + 10% dialyzed FBS, 0.0211 µM	115	107	–
RPMI 5 mM glucose + 10% dialyzed FBS, 0.0632 µM	122	111	–
RPMI 5 mM glucose + 10% dialyzed FBS, 0.19 µM	119	110	–
RPMI 5 mM glucose + 10% dialyzed FBS, 0.569 µM	120	86.7	–
RPMI 5 mM glucose + 10% dialyzed FBS, 1.71 µM	112	76.2	–
RPMI 5 mM glucose + 10% dialyzed FBS, 5.12 µM	111	49.9	–
RPMI 5 mM glucose + 10% dialyzed FBS, 15.4 µM	103	45.3	–
RPMI 5 mM glucose + 10% dialyzed FBS, 46.1 µM	95.1	41.6	–

CN1C2CCC1CC(OC(=O)C(CO)c1ccccc1)C2 (stereo not given)
AUC of viability dose-response curve
Conditions	NOMO1 [3]	P12-Ichikawa [2]	SEM cells [1]
HPLM + 10% dialyzed FBS	467	454	464
RPMI 5 mM glucose + 10% FBS	463	465	439
RPMI 5 mM glucose + 10% dialyzed FBS	472	469	474

C[C@]\12CCC(=O)\C=C1[C@@H]3C[C@@H]3[C@@H]4[C@@H]2CC[C@@]5(C)[C@H]4[C@@H]6C[C@@H]6[C@@]57CCC(=O)O7
AUC of viability dose-response curve
Conditions	NOMO1 [3]	P12-Ichikawa [2]	SEM cells [1]
HPLM + 10% dialyzed FBS	469	474	450
RPMI 5 mM glucose + 10% FBS	477	468	451
RPMI 5 mM glucose + 10% dialyzed FBS	471	471	468

cell viability [%], SEM cells [4]
Conditions	HPLM + 10% dialyzed FBS	RPMI 5 mM glucose + 10% FBS
0.000781 µM	89.1	98.6
0.00234 µM	97.2	111
0.00702 µM	107	115
0.0211 µM	123	117
0.0632 µM	120	137
0.19 µM	112	146
0.569 µM	106	124
1.71 µM	107	134
5.12 µM	133	119
15.4 µM	107	125
46.1 µM	104	146

N#Cc1ccnc(N2C(=O)CC[C@H]2C(=O)N(c2cncc(F)c2)[C@H](C(=O)NC2CC(F)(F)C2)c2ccccc2Cl)c1
AUC of viability dose-response curve
Conditions	NOMO1 [3]	P12-Ichikawa [2]	SEM cells [1]
HPLM + 10% dialyzed FBS	348	321	359
RPMI 5 mM glucose + 10% FBS	356	333	334
RPMI 5 mM glucose + 10% dialyzed FBS	380	361	379

cell viability [%]
Conditions	NOMO1 [6]	P12-Ichikawa [5]	SEM cells [4]
HPLM + 10% dialyzed FBS, 0.000781 µM	90.6	91.1	94.8
HPLM + 10% dialyzed FBS, 0.00234 µM	92.3	95.2	104
HPLM + 10% dialyzed FBS, 0.00702 µM	96.6	93.7	92.2
HPLM + 10% dialyzed FBS, 0.0211 µM	114	95.4	83.1
HPLM + 10% dialyzed FBS, 0.0632 µM	101	94.9	93.7
HPLM + 10% dialyzed FBS, 0.19 µM	115	97	96.7
HPLM + 10% dialyzed FBS, 0.569 µM	67.7	74.8	93.6
HPLM + 10% dialyzed FBS, 1.71 µM	49	48.3	87.6
HPLM + 10% dialyzed FBS, 5.12 µM	19.6	10.1	25.4
HPLM + 10% dialyzed FBS, 15.4 µM	26.2	10.1	17.6
HPLM + 10% dialyzed FBS, 46.1 µM	30.7	15.5	19.1
RPMI 5 mM glucose + 10% FBS, 0.000781 µM	93.2	88	119
RPMI 5 mM glucose + 10% FBS, 0.00234 µM	95.6	90.2	144
RPMI 5 mM glucose + 10% FBS, 0.00702 µM	116	95.4	119
RPMI 5 mM glucose + 10% FBS, 0.0211 µM	95.1	93.1	132
RPMI 5 mM glucose + 10% FBS, 0.0632 µM	90.1	90.5	146
RPMI 5 mM glucose + 10% FBS, 0.19 µM	92	90.5	134
RPMI 5 mM glucose + 10% FBS, 0.569 µM	94.6	80.5	108
RPMI 5 mM glucose + 10% FBS, 1.71 µM	79.2	71.5	50.5
RPMI 5 mM glucose + 10% FBS, 5.12 µM	16.8	25.4	19.1
RPMI 5 mM glucose + 10% FBS, 15.4 µM	16.5	16.2	14.9
RPMI 5 mM glucose + 10% FBS, 46.1 µM	14.5	7.62	16.1
RPMI 5 mM glucose + 10% dialyzed FBS, 0.000781 µM	97.2	95.5	104
RPMI 5 mM glucose + 10% dialyzed FBS, 0.00234 µM	97.1	89.9	100
RPMI 5 mM glucose + 10% dialyzed FBS, 0.00702 µM	96.4	88.5	94.6
RPMI 5 mM glucose + 10% dialyzed FBS, 0.0211 µM	101	96.7	110
RPMI 5 mM glucose + 10% dialyzed FBS, 0.0632 µM	97.6	97.5	91.9
RPMI 5 mM glucose + 10% dialyzed FBS, 0.19 µM	90.7	95.6	101
RPMI 5 mM glucose + 10% dialyzed FBS, 0.569 µM	94.8	85	105
RPMI 5 mM glucose + 10% dialyzed FBS, 1.71 µM	88.2	83.7	85.9
RPMI 5 mM glucose + 10% dialyzed FBS, 5.12 µM	42.2	35.6	34
RPMI 5 mM glucose + 10% dialyzed FBS, 15.4 µM	32.1	26.2	16.4
RPMI 5 mM glucose + 10% dialyzed FBS, 46.1 µM	18.8	18.8	17.9
